Laboratory results reported in PubChem BioAssay (NCI).
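96-well plates; 48 h exposure; 5 concentrations. Endpoints by linear interpolation between flanking doses. Not reached: highest tested concentration assigned. GI50 is the concentration that inhibits growth by half. At the TGI there is no net growth.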

Legend:
Experiment in all cases: inhibition of tumour cell growth, NCI panel, 48 h
[1] = tested on: NCI-H522 lung
[2] = tested on: U251 CNS
[3] = tested on: SF-539 CNS
[4] = tested on: SK-OV-3 ovarian
[5] = tested on: OVCAR-3 ovarian
[6] = tested on: HS 578T breast
[7] = tested on: UACC-62 melanoma
[8] = tested on: SNB-19 CNS
[9] = tested on: UACC-257 melanoma
[10] = tested on: HL-60(TB) leukemia

Structure (SMILES) | TGI [1] | TGI [2] | TGI [3] | TGI [4] | TGI [5] | TGI [6] | TGI [7] | TGI [8] | TGI [9] | TGI [10] | GI50 [1] | GI50 [2] | GI50 [3] | GI50 [4] | GI50 [5] | GI50 [6] | GI50 [7] | GI50 [8] | GI50 [9] | GI50 [10]
c1ccc2cc(OCC3CO3)c(OCC3CO3)cc2c1 (centres undefined) | 5790 nM | 13900 nM | 9130 nM | 22300 nM | 27900 nM | 20300 nM | 17600 nM | 17700 nM | 24100 nM | 45300 nM |  |  |  |  |  |  |  |  |  | 
CCCCCCCCCCCCOC1C(C(COC2OC(C(O)CN3CCCCC3)C3OC(C)(C)OC23)NC(=O)Nc2ccccc2)OC2OC(C)(C)OC21 (centres undefined) | 48000 nM | 27200 nM | 31400 nM | 44100 nM | 34600 nM | 23600 nM | 31000 nM | 44500 nM | 38000 nM | 11300 nM | 17500 nM | 9460 nM | 16600 nM | 20400 nM | 14700 nM | 8750 nM | 15900 nM | 18200 nM | 19300 nM | 3960 nM
O=C1/C(=C/c2ccc([N+](=O)[O-])s2)Oc2ccccc21 | 382 nM | 1820 nM | 2100 nM | 5190 nM | 550 nM | > 48600 nM | 1940 nM | 2790 nM | 2780 nM |  | 189 nM | 561 nM | 654 nM | 2130 nM | 250 nM | 882 nM | 667 nM | 1260 nM | 1260 nM | 960 nM
CCn1c(-c2nonc2N)nc2c(C#CC(C)(C)O)nc(O[C@@H](CN)c3ccccc3)cc21 | 353 nM | 1150 nM | 874 nM | 4570 nM | 314 nM | 1090 nM | 1020 nM | 3240 nM | 1540 nM | 371 nM | 91.9 nM | 45.5 nM | 116 nM | 73 nM | 84.5 nM | 45.3 nM | 361 nM | 236 nM | 611 nM | 89.1 nM
